Results reported in ChEMBL document CHEMBL5104093, “A comprehensive review on β-lapachone: Mechanisms, structural modifications, and therapeutic potentials” (Eur J Med Chem, 2021).
In brackets after ≈: the same amount, converted by molar mass.

Experiments:
Sporothrix schenckii [1] = assay: Antifungal activity against Sporothrix schenckii assessed as fungal growth inhibition incubated for 48 hrs by CLSI-based broth microdilution assay; format: functional
Sporothrix [2] = assay: Antifungal activity against Sporothrix brasiliensis assessed as fungal growth inhibition incubated for 48 hrs by CLSI-based broth microdilution assay; format: functional
Sporothrix schenckii [3] = assay: Antifungal activity against Sporothrix schenckii assessed as fungal growth inhibition incubated for 48 hrs in presence of itraconazole by CLSI-based broth microdilution assay; format: functional
Sporothrix [4] = assay: Antifungal activity against Sporothrix brasiliensis assessed as fungal growth inhibition incubated for 48 hrs in presence of itraconazole by CLSI-based broth microdilution assay; format: functional
Enterococcus faecalis = assay: Antibacterial activity against Enterococcus faecalis clinical isolates assessed as bacterial growth inhibition by broth macrodilution method; format: functional
HL-60 [5] = assay: Cytotoxicity against human HL-60 cells assessed as reduction in cell viability incubated for 72 hrs by MTT assay; format: functional, cell-based; details: HL-60, 72 h
PC-3 = assay: Cytotoxicity against human PC-3 cells assessed as reduction in cell viability incubated for 72 hrs by MTT assay; format: functional, cell-based; details: PC-3, 72 h
SF-295 = assay: Cytotoxicity against human SF-295 cells assessed as reduction in cell viability incubated for 72 hrs by MTT assay; format: functional, cell-based; details: SF-295, 72 h
MDA-MB-435 = assay: Cytotoxicity against human MDA-MB-435 cells assessed as reduction in cell viability incubated for 72 hrs by MTT assay; format: functional, cell-based; details: MDA-MB-435, 72 h
HCT-8 = assay: Cytotoxicity against human HCT-8 cells assessed as reduction in cell viability incubated for 72 hrs by MTT assay; format: functional, cell-based; details: HCT-8, 72 h
B16 = assay: Cytotoxicity against mouse B16 cells assessed as reduction in cell viability incubated for 72 hrs by MTT assay; format: functional, cell-based; details: B16, 72 h
HCT-116 [6] = assay: Cytotoxicity against human HCT-116 cells assessed as reduction in cell viability incubated for 72 hrs by MTT assay; format: functional, cell-based; details: HCT-116, 72 h
K562 [7] = assay: Cytotoxicity against human K562 cells assessed as reduction in cell viability incubated for 72 hrs by MTT assay; format: functional, cell-based; details: K562, 72 h
[8] = Selectivity index, ratio of IC50 for human PBMC cells to IC50 for human HCT-116 cells; format: toxicity; details: PBMC cells versus HCT-116 cells, read-out: Ratio IC50
[9] = Selectivity index, ratio of IC50 for human PBMC cells to IC50 for human K562 cells; format: toxicity; details: PBMC cells versus K562 cells, read-out: Ratio IC50
Staphylococcus aureus = assay: Antibacterial activity against Staphylococcus aureus 2065 MA assessed as diameter of bacterial growth inhibition by Mueller-Hinton broth based assay; format: functional
NCI-H460 = assay: Cytotoxicity against human NCI-H460 cells assessed as reduction in cell viability incubated for 72 hrs by MTT assay; format: functional, cell-based; details: NCI-H460, 72 h
MCF7 = assay: Cytotoxicity against human MCF7 cells assessed as reduction in cell viability incubated for 72 hrs by MTT assay; format: functional, cell-based; details: MCF7, 72 h
Trypanosoma cruzi = assay: Antitrypanosomal activity against bloodstream form of Trypanosoma cruzi Y trypomastigotes infected in Swiss Webster mouse assessed as reduction in viable parasite in blood incubated for 24 hrs by Neubauer counting chamber based light microscopic analysis; format: functional, organism-based
SNB-19 = assay: Cytotoxicity against human SNB-19 cells assessed as reduction in cell viability incubated for 72 hrs by MTT assay; format: functional, cell-based; details: SNB-19, 72 h
B16-F10 = assay: Cytotoxicity against mouse B16-F10 cells assessed as reduction in cell viability incubated for 72 hrs by MTT assay; format: functional, cell-based; details: B16-F10, 72 h
HepG2 [10] = assay: Cytotoxicity against human HepG2 cells assessed as reduction in cell viability incubated for 72 hrs by MTT assay; format: functional, cell-based; details: HepG2, 72 h
[11] = Selectivity index, ratio of IC50 for human L02 cells to IC50 for human HepG2 cells; format: toxicity; details: L02 cells versus HepG2 cells, read-out: Ratio IC50
HL-60 [12] = assay: Cytotoxicity against human HL-60 cells assessed as reduction in cell viability incubated for 72 hrs by alamar blue assay; format: functional, cell-based; details: HL-60, 72 h
MX1 = assay: Cytotoxicity against human MX1 cells assessed as reduction in cell viability incubated for 72 hrs by MTT assay; format: functional, cell-based; details: MX1, 72 h
OVCAR-8 = assay: Cytotoxicity against human OVCAR-8 cells assessed as reduction in cell viability incubated for 72 hrs by MTT assay; format: functional, cell-based; details: OVCAR-8, 72 h
MOLT-4 = assay: Cytotoxicity against human MOLT-4 cells assessed as reduction in cell viability incubated for 72 hrs by MTT assay; format: functional, cell-based; details: MOLT-4, 72 h
DU-145 = assay: Cytotoxicity against human DU-145 cells assessed as reduction in cell viability incubated for 72 hrs by MTT assay; format: functional, cell-based; details: DU-145, 72 h
Hs-578T = assay: Cytotoxicity against human Hs-578T cells assessed as reduction in cell viability incubated for 72 hrs by MTT assay; format: functional, cell-based
CCRF-CEM = assay: Cytotoxicity against human CEM cells assessed as reduction in cell viability incubated for 72 hrs by MTT assay; format: functional, cell-based
SW-620 = assay: Cytotoxicity against human SW-620 cells assessed as reduction in cell viability incubated for 72 hrs by MTT assay; format: functional, cell-based; details: SW-620, 72 h
COLO 205 = assay: Cytotoxicity against human COLO 205 cells assessed as reduction in cell viability incubated for 72 hrs by MTT assay; format: functional, cell-based; details: COLO 205, 72 h
UACC-62 = assay: Cytotoxicity against human UACC-62 cells assessed as reduction in cell viability incubated for 72 hrs by MTT assay; format: functional, cell-based; details: UACC-62, 72 h
MDA-MB-231 = assay: Cytotoxicity against human MDA-MB-231 cells assessed as reduction in cell viability incubated for 72 hrs by MTT assay; format: functional, cell-based; details: MDA-MB-231, 72 h
HCT-15 = assay: Cytotoxicity against human HCT-15 cells assessed as reduction in cell viability incubated for 72 hrs by MTT assay; format: functional, cell-based; details: HCT-15, 72 h
NCI-H358 = assay: Cytotoxicity against human NCI-H358 cells assessed as reduction in cell viability incubated for 72 hrs by MTT assay; format: functional, cell-based; details: NCI-H358, 72 h
[13] = tested on: Mycobacterium tuberculosis; assay: Antimycobacterial activity against Mycobacterium tuberculosis H37Rv ATCC 27294 assessed as bacterial growth inhibition incubated for 5 days by Alamar blue reagent based assay; format: functional; details: ATCC 27294, 120 h, time 5 day
HSC-3 = assay: Cytotoxicity against human HSC-3 cells assessed as reduction in cell viability incubated for 72 hrs by alamar blue assay; format: functional, cell-based; details: HSC-3, 72 h
SCC-4 = assay: Cytotoxicity against human SCC-4 cells assessed as reduction in cell viability incubated for 72 hrs by alamar blue assay; format: functional, cell-based; details: SCC-4, 72 h
SCC-9 = assay: Cytotoxicity against human SCC-9 cells assessed as reduction in cell viability incubated for 72 hrs by alamar blue assay; format: functional, cell-based; details: SCC-9, 72 h
SCC-15 = assay: Cytotoxicity against human SCC-15 cells assessed as reduction in cell viability incubated for 72 hrs by alamar blue assay; format: functional, cell-based; details: SCC-15, 72 h
SCC-25 = assay: Cytotoxicity against human SCC-25 cells assessed as reduction in cell viability incubated for 72 hrs by alamar blue assay; format: functional, cell-based; details: SCC-25, 72 h
HepG2 [14] = assay: Cytotoxicity against human HepG2 cells assessed as reduction in cell viability incubated for 72 hrs by alamar blue assay; format: functional, cell-based; details: HepG2, 72 h
K562 [15] = assay: Cytotoxicity against human K562 cells assessed as reduction in cell viability incubated for 72 hrs by alamar blue assay; format: functional, cell-based; details: K562, 72 h
[16] = Cytotoxicity against human AGP01 cells assessed as reduction in cell viability incubated for 72 hrs by alamar blue assay; format: functional, cell-based; details: AGP01, 72 h
[17] = Cytotoxicity against human ACP02 cells assessed as reduction in cell viability incubated for 72 hrs by alamar blue assay; format: functional, cell-based; details: ACP02, 72 h
[18] = Cytotoxicity against human ACP03 cells assessed as reduction in cell viability incubated for 72 hrs by alamar blue assay; format: functional, cell-based; details: ACP03, 72 h
HT-29 = assay: Cytotoxicity against human HT-29 cells assessed as reduction in cell viability incubated for 72 hrs by alamar blue assay; format: functional, cell-based; details: HT-29, 72 h
HCT-116 [19] = assay: Cytotoxicity against human HCT-116 cells assessed as reduction in cell viability incubated for 72 hrs by alamar blue assay; format: functional, cell-based; details: HCT-116, 72 h
[20] = Selectivity index, ratio of IC50 for human PBMC cells to IC50 for human HL-60 cells; format: toxicity; details: PBMC cells versus HL-60 cells, read-out: Ratio IC50

O=C1C(=O)c2ccccc2C2=C1CC(c1ccccc1)O2 (stereo not given)
MIC (Sporothrix schenckii [1]): 2 µM (≈ 0.553 µg/mL) | MIC (Sporothrix [2]): 2 µM (≈ 0.553 µg/mL) | MIC (Sporothrix schenckii [3]): 0.06 µM | MIC (Sporothrix [4]): 0.03 µM

O=C(N[C@H](CO)[C@H](O)c1ccc([N+](=O)[O-])cc1)C(Cl)Cl [CHLORAMPHENICOL]
MIC (Enterococcus faecalis): 12 µg/mL (≈ 37.1 µM)

CC1(C)OC2=C(C(=O)C(=O)c3ccccc32)C1n1cc(-c2ccccc2)nn1 (stereo not given)
IC50 (HL-60 [5]): 1210 nM | IC50 (PC-3): < 1210 nM | IC50 (SF-295): < 1210 nM | IC50 (MDA-MB-435): < 1210 nM | IC50 (HCT-8): < 1210 nM | IC50 (B16): < 1210 nM | MIC (Enterococcus faecalis): 8 µg/mL (≈ 21.5 µM)

CC1(C)OC2=C(C(=O)C(=O)c3ccccc32)C1Sc1ccccc1 (stereo not given)
IC50 (HCT-116 [6]): 900 nM | IC50 (PC-3): 900 nM | IC50 (SF-295): 900 nM | IC50 (K562 [7]): 900 nM | selectivity ratio [8]: 2.96 | selectivity ratio [9]: 2.11 | zone diameter (Staphylococcus aureus): 11 mm

CC1(C)OC2=C(C(=O)C(=O)c3ccccc32)[C@H](n2cc(C[Se]c3ccc(F)cc3)nn2)[C@H]1Br
IC50 (PC-3): 1060 nM | IC50 (NCI-H460): 1320 nM

CC1(C)OC2=C(CC1[Se]c1ccc(F)cc1)C(=O)C(=O)c1ccccc12 (stereo not given)
IC50 (MCF7): 950 nM | IC50 (HCT-116 [6]): 950 nM | IC50 (PC-3): 950 nM | IC50 (Trypanosoma cruzi): 38300 nM | IC50 (SNB-19): 950 nM | IC50 (B16-F10): 950 nM

O=C1C(=O)c2ccccc2C2=C1C1(C(=O)Nc3ccc(F)cc31)N1NN=NC1=N2 (stereo not given)
IC50 (HepG2 [10]): 2860 nM | selectivity ratio [11]: 20.6

CC1(C)OC2=C(C(=O)C(=O)c3ccccc32)C1n1cc(-c2ccc(Nc3ccccn3)c3nsnc23)nn1 (stereo not given)
IC50 (HL-60 [12]): 480 nM | IC50 (MCF7): 480 nM | IC50 (PC-3): 480 nM | IC50 (SF-295): 480 nM | IC50 (MX1): 480 nM | IC50 (OVCAR-8): 480 nM | IC50 (MDA-MB-435): 480 nM | IC50 (HCT-8): 480 nM | IC50 (MOLT-4): 480 nM | IC50 (K562 [7]): 480 nM | IC50 (DU-145): 480 nM | IC50 (Hs-578T): 480 nM | IC50 (CCRF-CEM): 480 nM | IC50 (SW-620): 480 nM | IC50 (COLO 205): 480 nM | IC50 (UACC-62): 480 nM | IC50 (MDA-MB-231): 480 nM | IC50 (HCT-15): 480 nM | IC50 (NCI-H358): 480 nM

O=C1C(=O)c2ccccc2C2=C1CCC(c1ccccc1)O2 (stereo not given)
MIC [13]: 2.5 µg/mL (≈ 8.61 µM)

CC1(C)OC2=C(CC1I)C(=O)C(=O)c1ccccc12 (stereo not given)
IC50 (HSC-3): 20 nM | IC50 (SCC-4): 20 nM | IC50 (SCC-9): 20 nM | IC50 (SCC-15): 20 nM | IC50 (SCC-25): 20 nM | IC50 (HepG2 [14]): 20 nM | IC50 (HL-60 [12]): 20 nM | IC50 (K562 [15]): 20 nM | IC50 [16]: 20 nM | IC50 [17]: 20 nM | IC50 [18]: 20 nM | IC50 (HT-29): 20 nM | IC50 (HCT-116 [19]): 20 nM | selectivity ratio [20]: 1690

CC1(C)OC2=C(C(=O)C(=O)c3ccccc32)C1n1cc(C2(O)CCCCC2)nn1 (stereo not given)
IC50 (HL-60 [5]): 430 nM | IC50 (PC-3): 430 nM | IC50 (SF-295): 430 nM | IC50 (MDA-MB-435): 430 nM | IC50 (HCT-8): 430 nM | IC50 (B16): 430 nM | MIC (Enterococcus faecalis): 16 µg/mL (≈ 40.7 µM)
